The text below walks through data of ChEMBL document CHEMBL3124877, “Structure-activity-relationship studies around the 2-amino group and pyridine core of antimalarial 3,5-diarylaminopyridines lead to a novel series of pyrazine analogues with oral in vivo activity” (J Med Chem, 2013).

SMILES strings stand for the structures. A value given as a limit tells only on which side of the number the result lay.

For data set [1], the system named is Liver microsome. The data set can be described thus: (§1) Half life in human liver microsomes by LC-MS/MS analysis. The format is ADME. As to conditions: microsomes. On the technique in general: Microsomes from liver hold many membrane-bound enzymes, among them those of drug oxidation.
Data set [2] deals with Liver microsome. Conditions: human, microsomes.
Another data set in a line: physchem. As to conditions: octanol/water, pH 7.4.
The nature of data set [3]: as §1. As to conditions: liver microsomes. The format is ADME.
A short description of the next data set: in vitro. As to conditions: human, liver microsomes.
The subject of another data set is Plasma. The data set can be described thus: Apparent plasma concentration in mouse infected with Plasmodium berghei ANKA at 3 mg/kg, po measured after 24 hrs. The format is ADME, organism-based. Also noted: dose 3 mg/kg, route oral. Conditions: in vivo.
A short description of data set [4]: Apparent Cmax in mouse infected with Plasmodium berghei ANKA at 3 mg/kg, po measured after 24 hrs. The format is ADME, organism-based. Set-up: dose 3 mg/kg, route oral. Conditions: in vivo.
Data set [5] is described as follows: Apparent AUC in mouse infected with Plasmodium berghei ANKA at 3 mg/kg, po measured after 24 hrs. In kind it is ADME, organism-based. Set-up: time < 24 hr, dose 3 mg/kg, route oral. Conditions: in vivo.
Data set [6] relates to Liver microsome. The data set can be described thus: Metabolic stability in rat liver microsomes. The format is ADME.

For the molecule `COc1ccc(-c2cncc(-c3ccc(S(C)(=O)=O)cc3)c2)cn1`, in the data set on Liver microsome [1], the t1/2 was 0.683 h. The CLH in the data set on Liver microsome [2] is 11.3 µL/min/mg. The logD in the data set “physchem” was determined as 2.5.
`COc1ccc(-c2nc(-c3ccc(S(C)(=O)=O)cc3)cnc2N)cn1` returned a half-life in [3] of 2.57 h. This molecule also showed a microsomal CLint in “in vitro” of 11 µL/min/mg. The pH-dependent lipophilicity (logD) in “physchem” was determined as 2.3.
Turning to `COc1ccc(-c2cc(-c3ccc(S(C)(=O)=O)cc3)nnc2N)cn1`, the half-life in data set [3] was more than 4.17 h. Further, in the data set “in vitro”, the intrinsic clearance (microsomal CLint) was less than 7 µL/min/mg. In the data set “physchem”, this molecule registered a log distribution coefficient (logD) of 1.7.
As for `COc1ccc(-c2csc3c(-c4ccc(S(C)(=O)=O)cc4)cnc(N)c23)cn1`, the half-life in data set [3] was more than 4.17 h. The molecule further had an intrinsic clearance (microsomal CLint) in the data set “in vitro” of less than 7 µL/min/mg. Moreover, in the data set “physchem”, the pH-dependent lipophilicity (logD) was 2.9.
`CS(=O)(=O)c1ccc(-c2cnc(N)c(-c3ccc(C(F)(F)F)nc3)n2)cc1`: the Cave in the data set on Plasma is 1000 nM. In addition, the Cmax in data set [4] amounted to 1500 nM. The AUC at 24 h in data set [5] was 24.3 µM·h. Moreover, the Stability result with Liver microsome [6] is reported as “Stable”. This molecule also had a half-life in data set [3] of more than 4.17 h. This molecule also came in with a microsomal CLint in “in vitro” of less than 7 µL/min/mg. Further, the log distribution coefficient (logD) in the data set “physchem” is 2.8.
Consider `CS(=O)(=O)c1ccc(-c2cnc(N)c(-c3ccc(C(F)(F)F)cc3)n2)cc1`, for which the Cave in the data set with Plasma was found to be 300 nM. The maximum concentration (Cmax) in data set [4] was found to be 500 nM. Moreover, the AUC at 24 h in [5] came out at 6.4 µM·h. The half-life in data set [3] came to 2.58 h. This molecule returned an intrinsic metabolic clearance (microsomal CLint) in the data set “in vitro” of 11 µL/min/mg. In addition, the logD in “physchem” is 2.8.
In the case of `Nc1ncc(-c2ccc(C(=O)N3CCOCC3)cc2)nc1-c1ccc(C(F)(F)F)nc1`, the half-life in [3] was more than 4.17 h. The molecule also returned a microsomal CLint in “in vitro” of less than 7 µL/min/mg.
`Nc1ncc(-c2ccc(C(=O)N3CCOCC3)cc2)nc1-c1ccc(C(F)(F)F)cc1`: in the data set on Plasma, the Cave is 10 nM. Moreover, in data set [4], the highest concentration (Cmax) came out at 1100 nM. Moreover, in [5], the AUC at 24 h worked out at 0.01 µM·h. For the same molecule, the half-life in data set [3] is more than 4.17 h. For the same molecule, the intrinsic metabolic clearance (microsomal CLint) in “in vitro” is less than 7 µL/min/mg. The molecule further returned a pH-dependent lipophilicity (logD) in the data set “physchem” of 3.2.
On to `CCS(=O)(=O)c1ccc(-c2cnc(N)c(-c3ccc(C(F)(F)F)nc3)n2)cc1`, for which, in the data set on Plasma, the Cave was found to be 10 nM. Besides, the peak concentration (Cmax) in [4] worked out at 1100 nM. Besides, in [5], the AUC at 24 h was determined as 0.01 µM·h. In data set [3], this molecule gave a half-life of 3.62 h. This molecule also showed a microsomal CLint in the data set “in vitro” of 8 µL/min/mg. Also, the pH-dependent lipophilicity (logD) in the data set “physchem” was found to be 3.1.
With `CNS(=O)(=O)c1ccc(-c2cnc(N)c(-c3ccc(C(F)(F)F)nc3)n2)cc1`, the Cave in the data set with Plasma stood at 10 nM. For the same molecule, in data set [4], the Cmax was found to be 2000 nM. Moreover, the AUC at 24 h in [5] was found to be 0.01 µM·h. The molecule also displayed a half-life in [3] of 1.85 h. Also, the intrinsic metabolic clearance (microsomal CLint) in “in vitro” was 12 µL/min/mg. In the data set “physchem”, the logD turned out to be 2.8.
In turn, `CNc1ncc(-c2ccc(S(C)(=O)=O)cc2)cc1-c1ccc(OC)nc1` displayed a logD in “physchem” of 2.6.
Regarding `COc1ccc(-c2cc(-c3ccc(S(C)(=O)=O)cc3)cnc2NCCCCN)cn1`, the half-life in [3] is more than 4.17 h. The intrinsic metabolic clearance (microsomal CLint) in the data set “in vitro” was less than 7 µL/min/mg. Moreover, the logD in “physchem” stood at 1.8.
The corresponding values for `COc1ccc(-c2cc(-c3ccc(S(C)(=O)=O)cc3)cnc2I)cn1` are 3.97 h, 7.3 µL/min/mg and 3.3.
`COc1ccc(-c2cc(-c3ccc(S(C)(=O)=O)cc3)cnc2O)cn1` gave a logD in “physchem” of 1.7.
For `CCOc1ncc(-c2ccc(S(C)(=O)=O)cc2)cc1-c1ccc(OC)nc1`, the half-life in data set [3] amounted to 2.03 h. This molecule had a microsomal CLint in “in vitro” of 14.2 µL/min/mg. The molecule also yielded a log distribution coefficient (logD) in “physchem” of 3.7.
On to `COc1ccc(-c2cc(-c3ccc(S(C)(=O)=O)cc3)cnc2C(F)(F)F)cn1`, for which the logD in “physchem” was determined as 3.
In “physchem”, `COc1ccc(-c2nc(-c3ccc(S(C)(=O)=O)cc3)ccc2N)cn1` displayed a logD of 2.3.
With `COc1ccc(-c2cc(-c3ccc(S(C)(=O)=O)cc3)ccc2N)cn1`, in data set [3], the half-life was more than 4.17 h. In addition, the microsomal CLint in “in vitro” was less than 7 µL/min/mg. This molecule returned a logD in the data set “physchem” of 2.8.
In turn, `COc1ccc(-c2cc(-c3ccc(S(C)(=O)=O)cc3)cnc2N)cn1` gave a half-life in data set [3] of 4.68 h. The molecule further returned a microsomal CLint in “in vitro” of 6.2 µL/min/mg. In the data set “physchem”, this molecule registered a logD of 2.2.

By logD is commonly meant lipophilicity at a set pH, counting ionised and neutral species. Lower therefore signals lower lipophilicity. In general, half-life refers to the time needed for the level to fall by half in the phase considered. One may read the microsomal CLint as the capacity of the preparation to metabolise the compound, expressed as a volume cleared per time. A higher microsomal CLint goes with faster metabolism. A word on the Cmax: it is the highest concentration seen after dosing. Broadly, the AUC is concentration integrated over time.
